From patent US20230090391A1, “OMECAMTIV MECARBIL TABLET” (Amgen Inc., priority 2020, published 2023)
Counter-ions that a name gives are not always drawn.

How the values were obtained:
[1] = 19F solid state NMR of granulation and IR mini-tablet cores (physical form); type: physicochemical; conditions: 19F SSNMR of IR granulation and IR mini-tablet cores
Source text: Cores 1A-1C, as well as the corresponding granulates, were subjected to analytical characterizations. The results are depicted in FIGS. 3 and 4.
FIGS. 3 and 4 depict the ^19F solid state NMR (SSNMR) spectra of the immediate-release granulation and immediate-release mini-tablet cores.

[2] = Phase 1 crossover study: safety and tolerability of single oral doses of OM; type: in vivo, healthy adult subjects; conditions: all 5 treatments
Description: The secondary objective of the study was to evaluate the safety and tolerability of a single 6 mg dose (administered as mini-tablets) or 25 mg dose (administered as a MR tablet or mini-tablets) of OM administered to healthy adult subjects.
The study was a Phase 1, single-center, open-label, randomized, 5-period, 4-sequence crossover study to investigate the pharmacokinetics, safety, and tolerability of the disclosed tablet formulations and a conventional MR tablet formulation of OM in healthy male and healthy female adult subjects. Subjects were screened to assess eligibility to enter the study within 21 days prior to the first dose administration. Subjects were admitted into the clinical research unit on Day 1 and confined to the clinical research unit for Periods 1 through 5 until discharged at end of study. Following randomization into 1 of 4 treatment sequences, subjects received 1 of the 5 treatments on Day 1 of each treatment period with all subjects receiving all 5 treatments. Blood was collected at predetermined timepoints to characterize plasma concentrations of OM. Safety and tolerability monitoring was performed throughout the study.
Up to twenty subjects (5 per sequence) were enrolled in the study. Data for all 20 subjects entered into the study were included in the PK and safety analyses. Healthy male or female subjects were selected according to inclusion and exclusion criteria. The subjects were assigned to one of the five following Treatment Groups (A-E): • Treatment Group A: 25 mg (1×25 mg) OM MR tablet; • Treatment Group B: 25 mg (25×1 mg) OM slow-release mini-tablets; • Treatment Group C: 25 mg (25×1 mg) OM fast-release mini-tablets; • Treatment Group D: 6 mg (6×1 mg) OM slow-release mini-tablets; and • Treatment Group E: 6 mg (6×1 mg) OM fast-release mini-tablets.
The safety analysis included monitoring adverse events, clinical laboratory evaluations, 12 lead electrocardiograms (ECGs), and vital signs during the study.
All safety data were listed. The treatment-emergent adverse events were summarized by treatment, severity, and relationship to the study drug. The frequency of treatment emergent adverse events was summarized by treatment, system organ class and preferred term of the Medical Dictionary for Regulatory Activities. No inferential statistical analyses were planned.

| Compound | Stability and physical form during manufacturing [1] | Clinical laboratory evaluations, vital signs, 12-lead ECGs ([2]; 20 subjects) | Number of subjects reporting treatment-emergent adverse events considered related to OM ([2]; 20 subjects) | Serious adverse events ([2]; 20 subjects) | Treatment-emergent adverse events leading to discontinuation ([2]; 20 subjects) | Severity of adverse events ([2]; 20 subjects, resolved by the end of the study) | Number of treatment-emergent adverse events considered related to OM ([2]; myalgia, dizziness, costochondritis, muscle twitching, non-cardiac chest pain) |
| --- | --- | --- | --- | --- | --- | --- | --- |
| COC(=O)N1CCN(Cc2cccc(NC(=O)Nc3ccc(C)nc3)c2F)CC1 [omecamtiv mecarbil dihydrochloride monohydrate] | stable during manufacturing and exhibits no change in physical form |  |  |  |  |  |  |
| COC(=O)N1CCN(Cc2cccc(NC(=O)Nc3ccc(C)nc3)c2F)CC1 [OM, Omecamtiv mecarbil] |  | no clinically significant findings | 7 subjects | no serious adverse events | no treatment-emergent adverse events led to premature discontinuation | mild | Eight |
